# Where a name gives a salt, the structure may show the parent alone.
# Target: T1, MPO (purified from human polynuclear leukocytes) (Homo sapiens, UniProt P05164)
# T1 construct: purified from human polynuclear leukocytes; purchased Calbiochem/EMD Biosciences; host or cells: human polynuclear leukocytes (natural source)
# Experiment: MPO Amplex Red Activity Assay
# Assay type: biochemical
# Conditions: Table 1, 2 μM H2O2, pH 7.4
# Procedure, shortened: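 Potency is given as kinact/KI: kobs values from 600 s progress curves, minus the uninhibited rate, are fit against inhibitor concentration. Reactions use 2 μM H2O2, 30 μM Amplex Red, pH 7.4 phosphate buffer with NaCl, DTPA and 2% DMSO, started with […] human MPO. Readout is resorufin fluorescence, catalase background subtracted.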
# T1 sequence (P05164 279-745 limits assumed): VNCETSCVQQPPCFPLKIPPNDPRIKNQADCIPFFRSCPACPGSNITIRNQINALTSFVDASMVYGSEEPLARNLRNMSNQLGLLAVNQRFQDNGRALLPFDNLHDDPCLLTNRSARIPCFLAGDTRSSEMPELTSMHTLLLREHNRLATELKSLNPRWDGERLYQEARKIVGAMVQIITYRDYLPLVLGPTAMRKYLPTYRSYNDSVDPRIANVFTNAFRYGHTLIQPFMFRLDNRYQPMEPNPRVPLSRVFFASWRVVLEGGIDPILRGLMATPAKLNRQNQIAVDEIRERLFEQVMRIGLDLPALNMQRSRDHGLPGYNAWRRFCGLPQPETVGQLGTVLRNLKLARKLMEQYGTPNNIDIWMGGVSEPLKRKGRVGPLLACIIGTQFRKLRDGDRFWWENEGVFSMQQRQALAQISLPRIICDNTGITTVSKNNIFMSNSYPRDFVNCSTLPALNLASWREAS
# T1 sequence (P05164 165-273 limits assumed): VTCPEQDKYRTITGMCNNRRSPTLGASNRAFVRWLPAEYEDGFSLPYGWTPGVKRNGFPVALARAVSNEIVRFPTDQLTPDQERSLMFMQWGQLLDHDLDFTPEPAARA
row,SMILES,MPO kinact/Ki
1,"COc1cc(OC)cc(-c2cc(=O)[nH]c(=S)n2CC(N)=O)c1 [Example 86, 2-[6-(3,5-dimethoxyphenyl)-4-oxo-2-thioxo-3,4-dihydropyrimidin-1(2H)-yl]acetamide]",3960 1/s per M
2,"COc1ccc(Cl)cc1-c1cc(=O)[nH]c(=S)n1C[C@H]1CCCN1 [Example 122, 6-(5-chloro-2-methoxyphenyl)-1-[(2R)-pyrrolidin-2-ylmethyl]-2-thioxo-2,3-dihydropyrimidin-4(1H)-one hydrochloride]",9310 1/s per M
3,"COc1ccc(-c2cc(=O)[nH]c(=S)n2CCC(N)=O)c(OC)c1 [Example 189, 3-[6-(2,4-dimethoxyphenyl)-4-oxo-2-thioxo-3,4-dihydropyrimidin-1(2H)-yl]propanamide]",2210 1/s per M

# Next, values leading:
row,MPO kinact/Ki,SMILES
1,142 1/s per M,"COc1ccc(-c2cc(=O)[nH]c(=S)n2CCNCC(N)=O)c(OC)c1 [Example 242, N~2~-{2-[6-(2,4-dimethoxyphenyl)-4-oxo-2-thioxo-3,4-dihydropyrimidin-1(2H)-yl]ethyl}glycinamide]"
2,6930 1/s per M,"COc1cc(Cl)ccc1-c1cc(=O)[nH]c(=S)n1CCN [Example 62, 1-(2-aminoethyl)-6-(4-chloro-2-methoxyphenyl)-2-thioxo-2,3-dihydropyrimidin-4(1H)-one hydrochloride]"
3,29600 1/s per M,"COc1ccc(C)cc1-c1cc(=O)[nH]c(=S)n1CCO [Example 161, 1-(2-hydroxyethyl)-6-(2-methoxy-5-methylphenyl)-2-thioxo-2,3-dihydropyrimidin-4(1H)-one]"
4,12500 1/s per M,"COc1ccc(OC)c(-c2cc(=O)[nH]c(=S)n2CC(N)=O)c1 [Example 2, 2-(6-(2,5-Dimethoxyphenyl)-4-oxo-2-thioxo-3,4-dihydropyrimidin-1(2H)-yl)acetamide]"

# Same assay, conditions: Table 1A, 2 μM H2O2, pH 7.4
row,SMILES,MPO kinact/Ki
1,"COc1ccccc1-c1cc(=O)[nH]c(=S)n1CC(=O)NCCN [Example 372, N-(2-aminoethyl)-2-[6-(2-methoxyphenyl)-4-oxo-2-thioxo-3,4-dihydropyrimidin-1(2H)-yl]acetamide]",6250 1/s per M
2,"COc1ccc(-c2cc(=O)[nH]c(=S)n2CC(=O)N2CC[C@H](N)C2)c(OC)c1 [Example 398, 1-{2-[(3S)-3-aminopyrrolidin-1-yl]-2-oxoethyl}-6-(2,4-dimethoxyphenyl)-2-thioxo-2,3-dihydropyrimidin-4(1H)-one]",4780 1/s per M
3,"COc1ccc(F)cc1-c1cc(=O)[nH]c(=S)n1CCCNC(=N)N1CC(F)(F)C1 [Example 351, 3,3-Difluoro-N-{3-[6-(5-fluoro-2-methoxyphenyl)-4-oxo-2-thioxo-3,4-dihydropyrimidin-1(2H)-yl]propyl}azetidine-1-carboximidamide]",7870 1/s per M

# Continued, values first:
row,MPO kinact/Ki,SMILES
1,4480 1/s per M,"NCCCn1c(-c2cc(F)ccc2OCCO)cc(=O)[nH]c1=S [Example 406, 1-(3-aminopropyl)-6-[5-fluoro-2-(2-hydroxyethoxy)phenyl]-2-thioxo-2,3-dihydropyrimidin-4(1H)-one]"
2,3440 1/s per M,"COc1ccc(-c2cc(=O)[nH]c(=S)n2CC(=O)N2CC(N)C2)c(OC)c1 [Example 431, 1-[2-(3-aminoazetidin-1-yl)-2-oxoethyl]-6-(2,4-dimethoxyphenyl)-2-thioxo-2,3-dihydropyrimidin-4(1H)-one]"
3,12300 1/s per M,"COc1ccc(-c2cc(=O)[nH]c(=S)n2CC(=O)NCCCN)c(OC)c1 [Example 442, N-(3-aminopropyl)-2-[6-(2,4-dimethoxyphenyl)-4-oxo-2-thioxo-3,4-dihydropyrimidin-1(2H)-yl]acetamide]"
4,2280 1/s per M,"COc1ccc(-c2cc(=O)[nH]c(=S)n2CCN)cc1OC [Example 360, 1-(2-aminoethyl)-6-(3,4-dimethoxyphenyl)-2-thioxo-2,3-dihydropyrimidin-4(1H)-one]"
